# Laboratory results as given in patent publication US8741906B2 (priority 2011, dated 2014).
# pEC50: −log10 of the molar value. Where two headings read alike, the source gives them in different places.
# Columns and labels:
# human CB2 receptors = target: T1, human CB2 receptors (Homo sapiens, UniProt P34972); experiment: functional cAMP assay, human CB2; assay type: cell-based; details: CHO cells expressing human CB2, cAMP; read-out: human CB2 EC50
# T1 construct: expressed in transfected cells; host or cells: CHO cells
# T1 sequence (P34972 whole entry): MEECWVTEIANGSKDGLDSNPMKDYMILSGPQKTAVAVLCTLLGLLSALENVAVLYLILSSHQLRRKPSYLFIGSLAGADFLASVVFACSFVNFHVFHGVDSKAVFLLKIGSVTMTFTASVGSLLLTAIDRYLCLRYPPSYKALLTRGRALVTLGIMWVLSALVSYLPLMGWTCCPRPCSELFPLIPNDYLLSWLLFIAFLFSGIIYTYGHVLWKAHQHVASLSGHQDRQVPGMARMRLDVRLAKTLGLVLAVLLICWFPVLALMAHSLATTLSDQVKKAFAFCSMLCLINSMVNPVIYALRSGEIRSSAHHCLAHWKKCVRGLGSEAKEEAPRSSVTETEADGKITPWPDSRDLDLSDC
# Outline: (§1)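 Cells are seeded 17-24 h ahead, then preincubated in Krebs Ringer bicarbonate buffer with 1 mM IBMX at 30 °C. Compounds act for 30 min at 30 °C, after which lysis and cAMP detection reagents are added for 2 h at room temperature. Time-resolved FRET gives cAMP content, and EC50 values are fitted from it.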
# human CB1 receptors = target: T2, human CB1 receptors (Homo sapiens, UniProt P21554); experiment: functional cAMP assay, human CB1; assay type: cell-based
# T2 construct: expressed in transfected cells; host or cells: CHO cells
# T2 sequence (P21554 whole entry): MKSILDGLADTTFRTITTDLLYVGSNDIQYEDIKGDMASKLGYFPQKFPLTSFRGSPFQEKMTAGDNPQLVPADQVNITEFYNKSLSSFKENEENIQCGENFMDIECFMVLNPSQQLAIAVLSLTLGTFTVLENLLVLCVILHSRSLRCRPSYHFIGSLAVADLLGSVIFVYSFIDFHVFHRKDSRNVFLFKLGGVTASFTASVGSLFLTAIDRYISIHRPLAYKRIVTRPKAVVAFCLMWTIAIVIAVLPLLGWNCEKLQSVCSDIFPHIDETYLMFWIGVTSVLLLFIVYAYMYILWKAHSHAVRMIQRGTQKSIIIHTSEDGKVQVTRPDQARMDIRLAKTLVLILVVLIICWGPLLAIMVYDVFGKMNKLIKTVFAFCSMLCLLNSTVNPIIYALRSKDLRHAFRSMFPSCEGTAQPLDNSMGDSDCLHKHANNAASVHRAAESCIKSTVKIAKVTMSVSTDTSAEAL
# Outline: as §1
# [1] = CHO cells expressing human CB1, cAMP, read-out: human CB1 EC50
Structure (SMILES),pEC50 (human CB2 receptors),pEC50 (human CB1 receptors; [1]),pEC50 (human CB1 receptors)
"CC(C)(C)c1nc(N2CCC(F)(F)C2)c2nnn(CCO)c2n1 [Example 63, 2-[5-tert-Butyl-7-(3,3-difluoro-pyrrolidin-1-yl)-[1,2,3]triazolo[4,5-d]pyrimidin-3-yl]-ethanol]",7.74,< 5.00,–
"CC(C)(C)c1nc(N2CCC(F)(F)C2)c2nnn(Cc3ccc(Cl)cc3)c2n1 [Example 66, 5-tert-Butyl-3-(4-chloro-benzyl)-7-(3,3-difluoro-pyrrolidin-1-yl)-3H-[1,2,3]triazolo[4,5-d]pyrimidine]",8.70,< 5.00,–
"Cn1nncc1Cn1nnc2c(N3CC[C@H](O)C3)nc(C(C)(C)C)nc21 [Example 154, (S)-1-[5-tert-Butyl-3-(3-methyl-3H-[1,2,3]triazol-4-ylmethyl)-3H-[1,2,3]triazolo[4,5-d]pyrimidin-7-yl]-pyrrolidin-3-ol]",8.60,< 5.00,–
"CC(C)(C)c1nc(N2CCC(F)(F)C2)c2nnn(Cc3cc(Cl)cnc3Cl)c2n1 [Example 99, 5-tert-Butyl-3-(2,5-dichloro-pyridin-3-ylmethyl)-7-(3,3-difluoro-pyrrolidin-1-yl)-3H-[1,2,3]triazolo[4,5-d]pyrimidine]",9.70,6.30,–
"COc1ccc(Cn2nnc3c(N4CC[C@H](O)C4)nc(C(C)(C)C)nc32)cc1 [Example 106, (S)-1-[5-tert-Butyl-3-(4-methoxy-benzyl)-3H-[1,2,3]triazolo[4,5-d]pyrimidin-7-yl]-pyrrolidin-3-ol]",8.32,< 5.00,–
"CC(C)(C)c1nc(N2CC[C@H](O)[C@@H]2CO)c2nnn(Cc3nnnn3C3CC3)c2n1 [Example 166, (2S,3S)-1-[5-tert-Butyl-3-(1-cyclopropyl-1H-tetrazol-5-ylmethyl)-3H-[1,2,3]triazolo[4,5-d]pyrimidin-7-yl]-2-hydroxymethyl-pyrrolidin-3-ol]",7.74,< 5.00,–
"CC(C)(C)c1nc(N2CCC(F)(F)C2)c2nnn(Cc3cc(Cl)ccc3Cl)c2n1 [Example 69, 5-tert-Butyl-3-(2,5-dichloro-benzyl)-7-(3,3-difluoro-pyrrolidin-1-yl)-3H-[1,2,3]triazolo[4,5-d]pyrimidine]",9.52,6.56,–
"Cc1noc(C2CCCN2c2nc(C(C)(C)C)nc3c2nnn3Cc2ccccc2Cl)n1 (centres unmarked) [Example 203, 5-tert-Butyl-3-(2-chloro-benzyl)-7-[2-(3-methyl-[1,2,4]oxadiazol-5-yl)-pyrrolidin-1-yl]-3H-[1,2,3]triazolo[4,5-d]pyrimidine]",7.27,< 5.00,–
"CC(C)Oc1nc(C(C)(C)C)nc2c1nnn2Cc1ccccc1Cl [Example 209, 5-tert-Butyl-3-(2-chloro-benzyl)-7-isopropoxy-3H-[1,2,3]triazolo[4,5-d]pyrimidine]",7.80,< 5.00,–
"CCN(C(C)=O)C1CCN(c2nc(C(C)(C)C)nc3c2nnn3Cc2ccccc2Cl)C1 (centres unmarked) [Example 196, N-{1-[5-tert-Butyl-3-(2-chloro-benzyl)-3H-[1,2,3]triazolo[4,5-d]pyrimidin-7-yl]-pyrrolidin-3-yl}-N-ethyl-acetamide]",6.93,–,< 5.00
"CC(C)(C)c1nc(OCC2CC2)c2nnn(Cc3ccccc3Cl)c2n1 [Example 210, 5-tert-Butyl-3-(2-chloro-benzyl)-7-cyclopropylmethoxy-3H-[1,2,3]triazolo[4,5-d]pyrimidine]",7.78,< 5.00,–
"CC(C)(C)c1nc(N2CC[C@H](O)C2)c2nnn(Cc3cccnc3Nc3ccc([N+](=O)[O-])c4nonc34)c2n1 [Example 158, (S)-1-{5-tert-Butyl-3-[2-(7-nitro-benzo[1,2,5]oxadiazol-4-ylamino)-pyridin-3-ylmethyl]-3H-[1,2,3]triazolo[4,5-d]pyrimidin-7-yl}-pyrrolidin-3-ol]",6.60,–,< 5.00
"CC(C)(C)c1nc(N2CCC[C@H]2CN)c2nnn(Cc3ccccc3Cl)c2n1 [Example 199, C-{(S)-1-[5-tert-Butyl-3-(2-chloro-benzyl)-3H-[1,2,3]triazolo[4,5-d]pyrimidin-7-yl]-pyrrolidin-2-yl}-methylamine]",6.74,–,< 5.00
